We go through 21 compounds from US12643887B2, “Heterocyclic derivatives with cardiomyocyte proliferation activity for treatment of heart diseases” (Tongji University, priority 2019, dated 2026).

Bounds are passed on as bounds.

Assay [1] deals with T1, human GSK3 beta (Homo sapiens, UniProt P49841).
T1 construct: Recombinant full-length human GSK3 beta (expressed in Sf9 insect cells with an N-terminal His tag); His (N); purchased SignalChem G09-10H; host or cells: Sf9 insect cells
In words: GSK3 beta enzyme assay (ADP-Glo). The class given is biochemical. Particulars: ATP 25 μM, read-out: GSK3b IC50. Here is the method: 1. GSK3 Beta Enzyme Assay
The ability of compounds to inhibit human GSK3 beta kinase activities was determined using a commercially available ADP-Glo™ Kinase Assay kit (Promega, Cat #V9102) according to the manufacturer's protocol. The ADP-Glo™ Kinase Assay is a luminescent ADP detection assay that provides a universal, homogeneous, high-throughput screening method to measure kinase activity by quantifying the amount of ADP produced during a kinase reaction. The ADP-Glo™ Kinase Assay can be used to monitor the activity of virtually any ADP-generating enzymes (e.g., kinases or ATPases).
Recombinant full-length human GSK3 beta (expressed in Sf9 insect cells with an N-terminal His tag) was purchased from SignalChem (Cat #G09-10H). The GSK3 substrate peptide (sequence: […](pS)EDEEE) was purchased from SignalChem (Cat #G50-58). This assay, run in a 384-well plate format, is a generic method for measuring kinase activities using an ADP-Glo Kinase Assay Kit. The basic assay procedure involves two steps: (1) Enzymatic step: inhibitors are incubated with the kinase and then ATP (included in the ADP-Glo Kinase Assay Kit) and the GSK3 substrate peptide are added to start the enzymatic reaction; (2) Detection step: after the kinase reaction, first ADP-Glo™ Reagent is added to terminate the kinase reaction and deplete the remaining ATP. Second, the Kinase Detection Reagent is added to simultaneously convert ADP to ATP and allow the newly synthesized ATP to be measured using a luciferase/luciferin reaction. The light generated is measured using a luminometer.
Briefly, GSK3 beta (4 nM) in the enzymatic buffer solutions (40 mM Tris, pH 7.5, 20 mM MgCl2, 0.1 mg/ml BSA, 50 μM DTT) were mixed with various concentrations of inhibitors (dissolved in 100% DMSO). These solutions were incubated for 30 minutes at 25° C., and subsequently a mixture of substrate peptide and ATP was added with the final peptide and ATP concentrations at 13 μM and 25 μM, respectively. The final reaction mixture of enzyme-substrate-ATP-compound was incubated for 60 minutes at 25° C.
Afterwards ADP-Glo™ Reagent was added and the mixture was incubated at 25° C. for 60 minutes. Then Kinase Detection Reagent was added and the final mixture was incubated at 25° C. for 60 minutes. The luminescence signal of the final solution was measured on an Envision instrument (PerkinElmer). The percent (%) inhibition at each concentration of a compound is calculated relative to the luminescence signal in the Max and Min control wells contained within each assay plate. […] The concentrations and percent inhibition values for a test compound are plotted and the concentration of the compound required to achieve 50% inhibition (IC50) is determined with a four-parameter logistic dose response equation.
A general note: In ADP-Glo the light output rises with the ADP produced.

The target in assay [2] is T2, human HIPK1 (Homo sapiens, UniProt Q86Z02).
T2 construct: Recombinant human HIPK1 (156-555); GST (N); purchased SignalChem H03-11G; host or cells: Sf9 insect cells
In words: HIPK1 enzyme assay (ADP-Glo). The assay is classed as biochemical. Particulars: ADP-Glo, ATP 5 μM; read-out: HIPK1 IC50. The protocol: The ability of compounds to inhibit human HIPK1 kinase activities was determined using a commercially available ADP-Glo™ Kinase Assay kit (Promega, Cat #V9102) according to the manufacturer's protocol.
Recombinant human HIPK1 (156-555) (expressed in Sf9 insect cells with an N-terminal GST tag) was purchased from SignalChem (Cat #H03-11G). Recombinant full length human MBP (expressed in E. Coli cells with an N-terminal GST tag) was purchased from SignalChem (Cat #M42-54G). This assay, run in a 384-well plate format, is a generic method for measuring kinase activities using an ADP-Glo Kinase Assay Kit. The basic assay procedure involves two steps: (1) Enzymatic step: inhibitors are incubated with the kinase and then ATP (included in the ADP-Glo Kinase Assay Kit) and the MBP protein are added to start the enzymatic reaction; (2) Detection step: after the kinase reaction, first ADP-Glo™ Reagent is added to terminate the kinase reaction and deplete the remaining ATP. Second, the Kinase Detection Reagent is added to simultaneously convert ADP to ATP and allow the newly synthesized ATP to be measured using a luciferase/luciferin reaction. The light generated is measured using a luminometer.
Briefly, HIPK1 (4 nM) in the enzymatic buffer solutions (40 mM Tris, pH 7.5, 20 mM MgCl2, 0.1 mg/ml BSA, 50 μM DTT) were mixed with various concentrations of inhibitors (dissolved in 100% DMSO). These solutions were incubated for 30 minutes at 25° C., and subsequently a mixture of substrate peptide and ATP was added with the final peptide and ATP concentrations at 0.05 mg/ml and 5 μM, respectively. The final reaction mixture of enzyme-substrate-ATP-compound was incubated for 90 minutes at 25° C.
Afterwards ADP-Glo™ Reagent was added and the mixture was incubated at 25° C. for 60 minutes. Then Kinase Detection Reagent was added, and the final mixture was incubated at 25° C. for 60 minutes. The luminescence signal of the final solution was measured on an Envision instrument (PerkinElmer). The percent (%) inhibition at each concentration of a compound is calculated relative to the luminescence signal in the Max and Min control wells contained within each assay plate. […] The concentrations and percent inhibition values for a test compound are plotted and the concentration of the compound required to achieve 50% inhibition (IC50) is determined with a four-parameter logistic dose response equation.

T2 sequence (Q86Z02 156-555): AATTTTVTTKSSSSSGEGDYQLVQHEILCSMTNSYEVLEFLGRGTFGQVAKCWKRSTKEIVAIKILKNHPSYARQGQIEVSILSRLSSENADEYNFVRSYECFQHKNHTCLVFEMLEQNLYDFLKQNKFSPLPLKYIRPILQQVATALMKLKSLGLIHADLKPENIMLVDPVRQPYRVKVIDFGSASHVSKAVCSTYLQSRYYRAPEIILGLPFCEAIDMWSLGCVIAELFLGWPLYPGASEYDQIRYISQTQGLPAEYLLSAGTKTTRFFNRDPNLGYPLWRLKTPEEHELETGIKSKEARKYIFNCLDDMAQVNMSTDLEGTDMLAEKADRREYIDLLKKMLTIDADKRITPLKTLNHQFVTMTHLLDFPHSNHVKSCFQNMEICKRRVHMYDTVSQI
T1 sequence (P49841 whole entry): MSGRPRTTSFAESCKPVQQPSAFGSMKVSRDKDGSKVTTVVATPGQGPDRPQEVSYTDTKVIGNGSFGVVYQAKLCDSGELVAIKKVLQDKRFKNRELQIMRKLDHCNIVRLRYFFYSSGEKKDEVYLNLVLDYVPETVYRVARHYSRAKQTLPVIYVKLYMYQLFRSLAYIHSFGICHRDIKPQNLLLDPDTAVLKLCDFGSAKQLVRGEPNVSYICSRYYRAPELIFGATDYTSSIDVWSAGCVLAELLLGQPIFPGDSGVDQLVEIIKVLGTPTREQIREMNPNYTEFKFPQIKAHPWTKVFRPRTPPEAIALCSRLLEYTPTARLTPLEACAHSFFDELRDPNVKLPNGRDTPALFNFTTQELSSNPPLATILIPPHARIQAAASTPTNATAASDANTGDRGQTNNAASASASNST

For orientation: IC50 means the concentration at which inhibition is half-maximal. With `Cn1cnc2cc(/C=C3\N=C(Nc4ccccc4)NC3=O)ccc21` [Example 71, (Z)-5-((1-methyl-1H-benzo[d]imidazol-5-yl)methylene)-2-(phenylamino)-3,5-dihydro-4H-imidazol-4-one], the IC50 in assay [1] and in assay [2] was more than 10 µM throughout.
For the compound `O=C1NC(NC23CC4CC(CC(C4)C2)C3)=N/C1=C\c1ccc2scnc2c1` [Example 50, (Z)-2-(adamantan-1-ylamino)-5-(benzo[d]thiazol-5-ylmethylene)-3,5-dihydro-4H-imidazol-4-one], the IC50 in assay [1] and in assay [2] was more than 10 µM each time.
As for `O=C1NC(Nc2ccccc2)=N/C1=C\c1ccc2cn[nH]c2c1` [Example 54, (Z)-5-((1H-indazol-6-yl)methylene)-2-(phenylamino)-3,5-dihydro-4H-imidazol-4-one], the IC50 in assay [1] and in assay [2] was more than 10 µM each time.
With `O=C1NC(NCCN2CCOCC2)=N/C1=C\c1ccc2ncsc2c1` [Example 29, (Z)-5-(benzo[d]thiazol-6-ylmethylene)-2-((2-morpholinoethyl)amino)-3,5-dihydro-4H-imidazol-4-one], the half-inhibitory concentration (IC50) in assay [1] and in assay [2] was 1 to 10 µM in each case.
For the compound `CN(Cc1ccccc1)C1=N/C(=C\c2ccc3ncsc3c2)C(=O)N1` [Example 28, (Z)-5-(benzo[d]thiazol-6-ylmethylene)-2-(benzyl(methyl)amino)-3,5-dihydro-4H-imidazol-4-one], the IC50 in assay [1] and in assay [2] was 1 to 10 µM in each case.
In the case of `Cn1ncc2ccc(/C=C3\N=C(Nc4ccc5ncsc5c4)NC3=O)cc21` [Example 80, (Z)-2-(benzo[d]thiazol-6-ylamino)-5-((1-methyl-1H-indazol-6-yl)methylene)-3,5-dihydro-4H-imidazol-4-one], the IC50 in assay [1] and in assay [2] was more than 10 µM in each case.
As for `O=C1NC(Nc2ccc3ncsc3c2)=N/C1=C\c1ccc2c(c1)OCCO2` [Example 74, (Z)-2-(benzo[d]thiazol-6-ylamino)-5-((2,3-dihydrobenzo[b][1,4]dioxin-6-yl)methylene)-3,5-dihydro-4H-imidazol-4-one], the IC50 in assay [1] and in assay [2] was more than 10 µM throughout.
On to `O=C1NC(N(Cc2ccccc2)c2ccccc2)=N/C1=C\c1ccc2ncsc2c1` [Example 41, (Z)-5-(benzo[d]thiazol-6-ylmethylene)-2-(benzyl(phenyl)amino)-3,5-dihydro-4H-imidazol-4-one], for which the IC50 was 1 to 10 µM in assay [1] and more than 10 µM in assay [2].
Regarding `O=C1NC(N(CCO)c2ccccc2)=N/C1=C\c1ccc2c(c1)OCO2` [Example 13, (Z)-5-(benzo[d][1,3]dioxol-5-ylmethylene)-2-((2-hydroxyethyl)(phenyl)amino)-3,5-dihydro-4H-imidazol-4-one], the IC50 in assay [1] and in assay [2] was 1 to 10 µM in each case.
`O=C1NC(Nc2ccccc2)=N/C1=C\c1ccc2nn[nH]c2c1` [Example 56, (Z)-5-((1H-benzo[d][1,2,3]triazol-6-yl)methylene)-2-(phenylamino)-3,5-dihydro-4H-imidazol-4-one]: the IC50 was 1 to 10 µM in assay [1] and more than 10 µM in assay [2].
As for `O=C1NC(Nc2ccccc2)=N/C1=C\c1cncs1` [Example 15, (Z)-2-(phenylamino)-5-(thiazol-5-ylmethylene)-3,5-dihydro-4H-imidazol-4-one], the half-maximal inhibitory concentration (IC50) in assay [1] and in assay [2] was more than 10 µM in each case.
In the case of `CN(C1=N/C(=C\c2ccc3ncsc3c2)C(=O)N1)c1ccc2ncsc2c1` [Example 83, (Z)-2-(benzo[d]thiazol-6-yl(methyl)amino)-5-(benzo[d]thiazol-6-ylmethylene)-3,5-dihydro-4H-imidazol-4-one], the half-inhibitory concentration (IC50) in assay [1] is 1 to 10 µM; in assay [2], more than 10 µM.
Consider `O=C1NC(Nc2ccccc2)=N/C1=C\c1ccc2[nH]ccc2c1` [Example 51, (Z)-5-((1H-indol-5-yl)methylene)-2-(phenylamino)-3,5-dihydro-4H-imidazol-4-one], for which the IC50 in assay [1] and in assay [2] was more than 10 µM each time.
For `O=C1NC(Nc2ccccc2)=N/C1=C\c1ccc2sccc2c1` [Example 72, (Z)-5-(benzo[b]thiophen-5-ylmethylene)-2-(phenylamino)-3,5-dihydro-4H-imidazol-4-one], the IC50 in assay [1] and in assay [2] was more than 10 µM in each case.
On to `O=C1NC(Nc2ccc(Cl)cc2)=N/C1=C\c1ccc2ncsc2c1` [Example 40, (Z)-5-(benzo[d]thiazol-6-ylmethylene)-2-((4-chlorophenyl)amino)-3,5-dihydro-4H-imidazol-4-one], for which the 50% inhibitory concentration (IC50) in assay [1] was more than 10 µM; in assay [2] it was 1 to 10 µM.
Taken in the same sequence, the figures for `CN(C1=N/C(=C\c2ccc3c(c2)OCCO3)C(=O)N1)c1ccc2ncsc2c1` [Example 84, (Z)-2-(benzo[d]thiazol-6-yl(methyl)amino)-5-((2,3-dihydrobenzo[b][1,4]dioxin-6-yl)methylene)-3,5-dihydro-4H-imidazol-4-one] were 1 to 10 µM and more than 10 µM.
The corresponding values for `O=C1NC(Nc2ccccc2)=N/C1=C\c1ccc2ncsc2c1` [Example 6, (Z)-5-(benzo[d]thiazol-6-ylmethylene)-2-(phenylamino)-3,5-dihydro-4H-imidazol-4-one] are 0.1 to 1 µM and 0.1 to 1 µM.
The corresponding values for `CN(C1=N/C(=C\c2ccc3c(c2)OCO3)C(=O)N1)c1cccnc1` [Example 18, (Z)-5-(benzo[d][1,3]dioxol-5-ylmethylene)-2-(methyl(pyridin-3-yl)amino)-3,5-dihydro-4H-imidazol-4-one] are more than 10 µM and more than 10 µM.
Consider `O=C1NC(Nc2ccccc2)=N/C1=C\c1ccc2scnc2c1` [Example 14, (Z)-5-(benzo[d]thiazol-5-ylmethylene)-2-(phenylamino)-3,5-dihydro-4H-imidazol-4-one], for which the half-maximal inhibitory concentration (IC50) in assay [1] and in assay [2] was more than 10 µM each time.
Turning to `COc1ccc(N(C)C2=N/C(=C\c3ccc4c(c3)OCO4)C(=O)N2)cc1` [Example 12, (Z)-5-(benzo[d][1,3]dioxol-5-ylmethylene)-2-((4-methoxyphenyl)(methyl)amino)-3,5-dihydro-4H-imidazol-4-one], the IC50 in assay [1] and in assay [2] was more than 10 µM throughout.
As to `O=C1NC(N(Cc2ccccc2)c2ccccc2)=N/C1=C\c1ccc2c(c1)OCO2` [Example 22, (Z)-5-(benzo[d][1,3]dioxol-5-ylmethylene)-2-(benzyl(phenyl)amino)-3,5-dihydro-4H-imidazol-4-one], the IC50 in assay [1] and in assay [2] was more than 10 µM each time.
